# Publication PMC8394033, “Cytocidal Antitumor Effects against Human Ovarian Cancer Cells Induced by B-Lactam Steroid Alkylators with Targeted Activity against Poly (ADP-Ribose) Polymerase (PARP) Enzymes in a Cell-Free Assay” (Biomedicines, 2021)
# “And” between values parts separate entries of the source, which are not always exact repeats. Identical values can stand only once. Like-named read-outs stand apart in the source and are kept apart here. Marks after values point to notes of the source that are not given here.
# Legend:
# UWB1.289 [1] = settings: human
# OVCAR-3 [2] = settings: human
# OVCAR-3 [3] = settings: for GI50: read-out: GI50 ±SEM (50% inhibition of cell growth, cytostatic); for IC50: read-out: IC50 ±SEM (50% cytocidal effect, cytotoxic)
# [4] = test system: PHA-stimulated PBMCs (T-lymphocytes) from healthy donors; settings: human
# [5] = test system: PHA-stimulated PBMCs (T-lymphocytes) from healthy donors; experiment: Sister chromatid exchanges (SCEs) assay, genotoxicity and PRI
# UWB1.289 [6] = settings: for GI50: read-out: GI50 ±SEM (50% inhibition of cell growth, cytostatic); for IC50: read-out: IC50 ±SEM (50% cytocidal effect, cytotoxic)
# UWB1.289 [7] = experiment: Sister chromatid exchanges (SCEs) assay, genotoxicity and PRI
# MRC-5 = experiment: MTT assay, selectivity on normal lung fibroblasts; settings: for GI50: Homo sapiens, MRC5, 48 h, read-out: GI50 ±SEM (50% inhibition of cell growth, cytostatic)
# in vitro = settings: human
# SKOV-3 [8] = settings: human
# SKOV-3 [9] = settings: for GI50: read-out: GI50 ±SEM (50% inhibition of cell growth, cytostatic); for IC50: read-out: IC50 ±SEM (50% cytocidal effect, cytotoxic)
# UWB1.289 [10] = settings: human; remark: listed apart in the source
# PARP1 mRNA (PARP1/ACTB) = assay type: cell-based, human
# [11] = MTT assay, selectivity on normal lung fibroblasts; settings: human, MRC-5 normal lung fibroblasts
# PARP2 mRNA (PARP2/ACTB) = experiment: PARP2 mRNA expression analysis by qRT-PCR; assay type: cell-based, human; settings: UWB1.289, vs untreated cells, 20 and 40 μΜ, 72 h
smiles,measurement,setting,value
"CC(C)CCCC(C)[C@H]1CCC2C3NC(=O)C=C4C[C@@H](OC(=O)CCOc5ccc(N(CCCl)CCCl)cc5)CC[C@]4(C)C3CC[C@@]21C (stereo partly drawn) [ASA-C, 7a,9a-dimethyl-10-((R)-6-methylheptan-2-yl)-2-oxo-1,2,4,5,6,7,7a,7b,8,9,9a,10,11,12,12a,12b-hexadecahydrobenzo[d]indeno[4,5-b]azepin-5-yl 3-(4-(bis(2-chloroethyl)amino)phenoxy)propanoate]",SCE/Chromosome ± SEM,UWB1.289 [1],0.33 ± 0.02
same,SCEs/Metaphase ± SEM,UWB1.289 [1],24.53 ± 1.72
same,IC50,OVCAR-3 [2],> 100 µM
same,"TGI ±SEM (100% cell growth inhibition, cytostatic)",OVCAR-3 [3],>100 µM
same,GI50,OVCAR-3 [3],> 100 µM
same,Mean SCE/Chromosome ± SD,[4],0.19 ± 0.08
same,Mean SCEs/metaphase Mean ± SD,[4],8.81 ± 0.4
same,Mean PRI ± SD,[5],2.612 ± 0.13
same,PRI (Proliferation Rate Index),[5],2.48 and 2.72 and 2.47 and 2.65 and 2.74
same,"TGI ±SEM (100% cell growth inhibition, cytostatic)",UWB1.289 [6],>100 µM
same,GI50,UWB1.289 [6],73 ± 7.58 µM
same,PRI (Proliferation Rate Index),UWB1.289 [7],2.15
same,"TGI ±SEM (100% cell growth inhibition, cytostatic)",MRC-5,>100 µM
same,GI50,MRC-5,> 100 µM
same,IC50,in vitro,> 100 µM
same,IC50,SKOV-3 [8],> 100 µM
same,"TGI ±SEM (100% cell growth inhibition, cytostatic)",SKOV-3 [9],>100 µM
same,GI50,SKOV-3 [9],> 100 µM
same,IC50,UWB1.289 [10],> 100 µM
"NC(=O)c1cccc(N)c1 [3-AB, 3-Aminobenzamide, reference compound]","TGI ±SEM (100% cell growth inhibition, cytostatic)","OVCAR-3 [3]; OVCAR-3, 48 h treatment, MTT",>100 µM
same,GI50,"OVCAR-3 [3]; OVCAR-3, 48 h treatment, MTT",> 100 µM
same,IC50,"OVCAR-3 [3]; OVCAR-3, 48 h treatment, MTT",> 100 µM
same,Mean PRI ± SD,"[5]; mean of 5 donors' PBMCs, 3 μM",2.696 ± 0.12
same,Mean SCE/Chromosome ± SD,"[5]; mean of 5 donors' PBMCs, 3 μM",0.30 ± 0.03
same,Mean SCEs/metaphase Mean ± SD,"[5]; mean of 5 donors' PBMCs, 3 μM",14.03 ± 1.24
same,alterations in the PARP1/ACTB mRNA cellular content,PARP1 mRNA (PARP1/ACTB),non-significant alterations
same,"TGI ±SEM (100% cell growth inhibition, cytostatic)","UWB1.289 [6]; UWB1.289, 48 h treatment, MTT",>100 µM
same,GI50,"UWB1.289 [6]; UWB1.289, 48 h treatment, MTT",92 ± 13 µM
same,IC50,"UWB1.289 [6]; UWB1.289, 48 h treatment, MTT",> 100 µM
same,SCE/Chromosome ± SEM,"UWB1.289 [7]; UWB1.289, 3 μM",0.43 ± 0.025
same,SCEs/Metaphase ± SEM,"UWB1.289 [7]; UWB1.289, 3 μM",31.91 ± 1.88
same,GI50,MRC-5,> 100 µM
same,"TGI ±SEM (100% cell growth inhibition, cytostatic)","MRC-5; MRC-5 normal human lung fibroblasts, 48 h treatment, MTT",>100 µM
same,IC50 at 48 h,[11],> 100 µM
same,"TGI ±SEM (100% cell growth inhibition, cytostatic)","SKOV-3 [9]; SKOV-3, 48 h treatment, MTT",>100 µM
same,GI50,"SKOV-3 [9]; SKOV-3, 48 h treatment, MTT",> 100 µM
same,IC50,"SKOV-3 [9]; SKOV-3, 48 h treatment, MTT",> 100 µM
"C[C@]12CC[C@H](OC(=O)CCOc3ccc(N(CCCl)CCCl)cc3)CC1=CC(=O)NC1C2CC[C@]2(C)C(=O)CCC12 (stereo partly shown) [ASA-A, 7a,9a-dimethyl-2,10-dioxo-1,2,4,5,6,7,7a,7b, 8,9,9a,10,11,12,12a,12b-hexadecahydrobenzo[d]indeno [4,5-b]azepin-5-yl 3-(4-(bis(2-chloroethyl)amino)phenoxy)propanoate]",SCE/Chromosome ± SEM,UWB1.289 [1],1.0 ± 0.054
same,SCEs/Metaphase ± SEM,UWB1.289 [1],73.78 ± 4.03
same,IC50,OVCAR-3 [2],47 ± 4.82 µM
same,"TGI ±SEM (100% cell growth inhibition, cytostatic)",OVCAR-3 [3],38 ± 2.95 µM
same,GI50,OVCAR-3 [3],29 ± 3.04 µM
same,Mean SCE/Chromosome ± SD,[4],0.66 ± 0.04
same,Mean SCEs/metaphase Mean ± SD,[4],30.28 ± 2.03
same,Mean PRI ± SD,[5],2.18 ± 0.13
same,PRI (Proliferation Rate Index),[5],2.13 and 2.21 and 1.98 and 2.32 and 2.26
same,"TGI ±SEM (100% cell growth inhibition, cytostatic)",UWB1.289 [6],52 ± 4.61 µM
same,GI50,UWB1.289 [6],19 ± 1.83 µM
same,PRI (Proliferation Rate Index),UWB1.289 [7],1.88 *
same,"TGI ±SEM (100% cell growth inhibition, cytostatic)",MRC-5,>100 µM
same,GI50,MRC-5,69 ± 7.13 µM
same,IC50,in vitro,> 100 µM
same,IC50,SKOV-3 [8],67 ± 7.11 µM
same,"TGI ±SEM (100% cell growth inhibition, cytostatic)",SKOV-3 [9],33 ± 2.79 µM
same,GI50,SKOV-3 [9],15 ± 1.26 µM
same,IC50,UWB1.289 [10],71 ± 7.01 µM
"CC12CCC3C(NC(=O)C=C4CC(OC(=O)CCOc5ccc(N(CCCl)CCCl)cc5)CCC43C)C1CCC(=O)N2 (stereo not shown) [ASA-B, 11a,13a-dimethyl-2,6-dioxo-2,3,4,4a,4b,5,6,8,9,10,11,11a,11b,12,13,13a-hexadecahydro-1H-benzo[4,5]azepino [2,3-f]quinolin-9-yl 3-(4-(bis(2-chloroethyl)amino)phenoxy)propanoate]",SCE/Chromosome ± SEM,UWB1.289 [1],1.17 ± 0.07
same,SCEs/Metaphase ± SEM,UWB1.289 [1],86.76 ± 4.97
same,IC50,OVCAR-3 [2],> 100 µM
same,"TGI ±SEM (100% cell growth inhibition, cytostatic)",OVCAR-3 [3],81 ± 7.82 µM
same,GI50,OVCAR-3 [3],44 ± 5.04 µM
same,Mean SCE/Chromosome ± SD,[4],0.86 ± 0.06
same,Mean SCEs/metaphase Mean ± SD,[4],39.54 ± 2.84
same,increase of the PARP2/ACTB mRNA ratio,PARP2 mRNA (PARP2/ACTB),140- to150 fold
same,Mean PRI ± SD,[5],2.23 ± 0.12
same,PRI (Proliferation Rate Index),[5],2.30 and 2.18 and 2.04 and 2.34 and 2.29
same,"TGI ±SEM (100% cell growth inhibition, cytostatic)",UWB1.289 [6],35 ± 3.63 µM
same,GI50,UWB1.289 [6],10 ± 0.81 µM
same,PRI (Proliferation Rate Index),UWB1.289 [7],1.77 *
same,"TGI ±SEM (100% cell growth inhibition, cytostatic)",MRC-5,>100 µM
same,GI50,MRC-5,86 ± 9.95 µM
same,IC50,in vitro,> 100 µM
same,IC50,SKOV-3 [8],98 ± 8.97 µM
same,"TGI ±SEM (100% cell growth inhibition, cytostatic)",SKOV-3 [9],51 ± 4.46 µM
same,GI50,SKOV-3 [9],24 ± 2.42 µM
same,IC50,UWB1.289 [10],54 ± 5.11 µM
O=C(c1cc(Cc2n[nH]c(=O)c3ccccc23)ccc1F)N1CCN(C(=O)C2CC2)CC1 [Olaparib],"TGI ±SEM (100% cell growth inhibition, cytostatic)",OVCAR-3 [3],>100 µM
same,GI50,OVCAR-3 [3],32 ± 4.64 µM
same,IC50,"OVCAR-3 [3]; OVCAR-3, 48 h treatment, MTT",> 100 µM
same,PRI (Proliferation Rate Index),"[5]; Donor 1 PBMCs, 3 μM",2.60
same,SCE/Chromosome ± SEM,"[5]; Donor 1 PBMCs, 3 μM",0.44 ± 0.02
same,SCEs/Metaphase ± SEM,"[5]; Donor 1 PBMCs, 3 μM",20.43 ± 1.1
same,PRI (Proliferation Rate Index),"[5]; Donor 2 PBMCs, 3 μM",2.56
same,SCE/Chromosome ± SEM,"[5]; Donor 2 PBMCs, 3 μM",0.47 ± 0.03
same,SCEs/Metaphase ± SEM,"[5]; Donor 2 PBMCs, 3 μM",21.6 ± 1.4
same,PRI (Proliferation Rate Index),"[5]; Donor 3 PBMCs, 3 μM",2.47
same,SCE/Chromosome ± SEM,"[5]; Donor 3 PBMCs, 3 μM",0.52 ± 0.03
same,SCEs/Metaphase ± SEM,"[5]; Donor 3 PBMCs, 3 μM",23.87 ± 1.5
same,PRI (Proliferation Rate Index),"[5]; Donor 4 PBMCs, 3 μM",2.76
same,SCE/Chromosome ± SEM,"[5]; Donor 4 PBMCs, 3 μM",0.48 ± 0.03
same,SCEs/Metaphase ± SEM,"[5]; Donor 4 PBMCs, 3 μM",21.92 ± 1.2
same,PRI (Proliferation Rate Index),"[5]; Donor 5 PBMCs, 3 μM",2.34
same,SCE/Chromosome ± SEM,"[5]; Donor 5 PBMCs, 3 μM",0.55 ± 0.04
same,SCEs/Metaphase ± SEM,"[5]; Donor 5 PBMCs, 3 μM",25.32 ± 1.6
same,Mean PRI ± SD,"[5]; mean of 5 donors' PBMCs, 3 μM",2.546 ± 0.16
same,Mean SCE/Chromosome ± SD,"[5]; mean of 5 donors' PBMCs, 3 μM",0.66 ± 0.04
same,Mean SCEs/metaphase Mean ± SD,"[5]; mean of 5 donors' PBMCs, 3 μM",22.63 ± 1.95
same,"TGI ±SEM (100% cell growth inhibition, cytostatic)",UWB1.289 [6],85 ± 9.34 µM
same,GI50,UWB1.289 [6],14 ± 1.78 µM
same,IC50,"UWB1.289 [6]; UWB1.289, 48 h treatment, MTT",> 100 µM
same,PRI (Proliferation Rate Index),"UWB1.289 [7]; UWB1.289, 3 μM",1.98 *
same,SCE/Chromosome ± SEM,"UWB1.289 [7]; UWB1.289, 3 μM",0.90 ± 0.06
same,SCEs/Metaphase ± SEM,"UWB1.289 [7]; UWB1.289, 3 μM",66.78 ± 4.45
same,"TGI ±SEM (100% cell growth inhibition, cytostatic)",MRC-5,>100 µM
same,GI50,MRC-5,> 100 µM
same,IC50 at 48 h,[11],> 100 µM
same,"TGI ±SEM (100% cell growth inhibition, cytostatic)",SKOV-3 [9],>100 µM
same,GI50,SKOV-3 [9],> 100 µM
same,IC50,"SKOV-3 [9]; SKOV-3, 48 h treatment, MTT",> 100 µM
